According to ChEMBL document CHEMBL3992486 (Medchemcomm, 2016):
≈ marks a conversion by molar mass, not a printed value.

Experiments:
[1] = tested on: Mycobacterium tuberculosis; assay: Antimycobacterial activity against dormant Mycobacterium tuberculosis H37Ra ATCC 25177 after 12 days by XTT dye based two-fold dilution method; type: functional; conditions: H37Ra ATCC 25177, 288 h
[2] = tested on: Mycobacterium tuberculosis; assay: Antimycobacterial activity against dormant Mycobacterium bovis BCG ATCC 35743 after 12 days by neutral red dye based two-fold dilution method; type: functional; conditions: BCG str. ATCC 35743, 288 h
[3] = Selectivity index, ratio of GI50 for human MCF7 cells to MIC for dormant Mycobacterium bovis BCG ATCC 35743; type: toxicity; conditions: pooled result: one value given for 3 cell lines, strains, targets or settings, read-out: Selectivity Index
[4] = Selectivity index, ratio of GI50 for human MCF7 cells to MIC for dormant Mycobacterium tuberculosis H37Ra ATCC 25177; type: toxicity; conditions: pooled result: one value given for 3 cell lines, strains, targets or settings, read-out: Selectivity Index
[5] = Cytotoxicity against human A549 cells by MTT assay; type: cell-based
[6] = Cytotoxicity against human MCF7 cells by MTT assay; type: cell-based

SMILES | MIC [1] | MIC [2] | selectivity ratio [3] | selectivity ratio [4] | GI50 [5] | GI50 [6]
Cc1ccc2cc(C3SCC(=O)N3NC(=O)c3ccncc3)c3nnnn3c2c1 (centres undefined) | 2610 µM (≈ 1060 µg/mL) | 300 µM (≈ 122 µg/mL) | 833 | 94.3 |  | 
Cc1ccc2c(c1)cc(C1SCC(=O)N1NC(=O)c1ccncc1)c1nnnn12 (centres undefined) | 2140 µM (≈ 868 µg/mL) | 8430 µM (≈ 3420 µg/mL) | 29.2 | 115 |  | 
COc1ccc2c(c1)cc(C1SCC(=O)N1NC(=O)c1ccncc1)c1nnnn12 (centres undefined) | 990 µM (≈ 417 µg/mL) | 140 µM (≈ 59 µg/mL) | 11.8 | 238 |  | 
COc1ccc2cc(C3SCC(=O)N3NC(=O)c3ccncc3)c3nnnn3c2c1 (centres undefined) | 1660 µM (≈ 700 µg/mL) | 360 µM (≈ 152 µg/mL) | 667 | 143 |  | 
O=C(NN1C(=O)CSC1c1cc2ccccc2n2nnnc12)c1ccncc1 (centres undefined) |  | 430 µM (≈ 168 µg/mL) | 588 | 18.9 |  | 
Cc1cccc2cc(C3SCC(=O)N3NC(=O)c3ccncc3)c3nnnn3c12 (centres undefined) | 1770 µM (≈ 718 µg/mL) | 510 µM (≈ 207 µg/mL) | 476 | 139 |  | 
CC(=O)O[C@H]1C(=O)[C@@]2(C)[C@H]([C@H](OC(=O)c3ccccc3)[C@]3(O)C[C@H](OC(=O)[C@H](O)[C@@H](NC(=O)c4ccccc4)c4ccccc4)C(C)=C1C3(C)C)[C@]1(OC(C)=O)CO[C@@H]1C[C@@H]2O [PACLITAXEL] |  |  |  |  | 80 µM | 87 µM
CO[C@H]1/C=C/O[C@@]2(C)Oc3c(C)c(O)c4c(O)c(c(/C=N/N5CCN(C)CC5)c(O)c4c3C2=O)NC(=O)/C(C)=C\C=C\[C@H](C)[C@H](O)[C@@H](C)[C@@H](O)[C@@H](C)[C@H](OC(C)=O)[C@@H]1C [RIFAMPIN] | 24 µM (≈ 19.8 µg/mL) | 21 µM (≈ 17.3 µg/mL) | 1750 | > 5000 |  | 
